We go through 17 molecules from paper PMC3871595, “Structure Based Identification and Characterization of Flavonoids That Disrupt Human Papillomavirus-16 E6 Function” (PLoS ONE, 2013).

Series [1] concerns the target T1, interaction between HPV-16 E6 and E6AP (Human papillomavirus type 16, UniProt P03126).
T1 construct: made in house; host or cells: E. coli BL21
The series is described as follows: biochemical. In kind it is binding. The note with it: for Emax: read-out: Maximal Inhibition; for activity and potency in E6/E6AP binding assay (in words): SAR library, initial 5-point dose range 12.3 µM to 1 mM. Here is the method:
To characterize potential E6 inhibitors, a robust in vitro assay was developed to measure the interaction between HPV-16 E6 and E6AP. […] The core 70 amino acids of the E6 binding region of E6AP (residues 371-440) was fused to bacterial alkaline phosphatase (BAP) in the MY101 vector [40]. […] Binding efficiency was determined from the intensity of BAP activated chemiluminescence remaining in each well.
Kinetic analysis was performed to characterize the protein-protein interaction inherent in this assay.
The collection of 72 available structural-lead compounds was tested in the filter-plate based in vitro E6-E6AP binding assay. […] Compounds that disrupted the Flag-BAP interaction with the same potency as the HPV-16 E6 and E6AP interaction were classified as non-specific and eliminated from further analysis. […]
(§1) Pre-Block - 96-well filter plates were prepared (0.2 µm BioTrace NT, Pall). 100µL of blocking buffer (100 mM Tris pH 8.0, 100 mM NaCl, 0.1% milk) was added per well. Plates were blocked for 1 hr at RT on an orbital shaker. Buffer was removed by vacuum filtration using a vacuum manifold. GST-E6 Bead addition – GST-E6 beads were prepared at 5µg/mL in GST-E6 bead buffer (100 mM Tris pH 8.0, 100 mM NaCl, 0.1% milk, 2.5 mM DTT). 100µL of GST-E6 bead mix was added per well and incubated for 1 hr at 4°C. Buffer was removed by vacuum filtration. […] 48 µL of each reagent was added per well. For drug assay, 2µL of compound was added to each well and mixed thoroughly. […] Plates were incubated for 1-3 hours at RT on an orbital shaker. Buffer was removed by vacuum filtration. Plates were washed on the vacuum manifold, first with 200 µL buffer (100 mM Tris pH 8.0, 100 mM NaCl, 1 mM DTT), and twice more with 100µL lysis buffer without DTT. Plates were cleared and dried with on the vacuum manifold. Assay – Immunostar assay reagent was prepared and equilibrated to RT prior to addition. 60 µL of Immunostar-AP assay reagent was added, the BAP activity was allowed to develop for 10 minutes and the plates were read on a Wallace Luminometer. BAP activity was measured as relative light units (RLU) on a luminometer using the Immunostar-AP substrate (BioRad).

In another series the target is T2, MBP-E6 (Human papillomavirus type 16, UniProt P03126).
T2 construct: made in house; host or cells: E. coli BL21DE(3)
T2 sequence (P03126 whole entry): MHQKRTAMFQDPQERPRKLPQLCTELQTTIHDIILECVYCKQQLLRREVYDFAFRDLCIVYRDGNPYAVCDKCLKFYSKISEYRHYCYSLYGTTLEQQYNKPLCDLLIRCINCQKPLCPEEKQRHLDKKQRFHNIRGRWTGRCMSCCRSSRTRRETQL
The series is described as follows: thermal shift (Sypro Orange) assay. In kind it is binding, HPV-16. The note with it: versus DMSO; for effect on Tm of MBP-E6: 5-150 µM tested. As for the experimental part: A thermal shift assay was used to assess compound binding to HPV E6. In this reaction, protein denaturation is measured by an increase in fluorescence from Sypro Orange as it binds to the newly exposed hydrophobic surfaces on the protein [48]. A protein stability curve is created as a measure of the rate of protein unfolding. The relative fluorescence is plotted against temperature and the melting temperature (Tm) is determined by calculating the temperature of peak fluorescence. Ligand binding can stabilize the protein and increase the Tm. The thermal profile of MBP-E6 proteins was investigated to determine if the flavonoid derivatives could stabilize MBP-E6 protein structure during heat-induced unfolding. […] The change in Tm (∆Tm) was plotted for each compound and compared to DMSO (Figure 10F,G ).
MBP-16E6 DNA, a kind gift from G. Travé [58], was transformed into BL21DE(3) E. coli. Protein expression was performed by inoculation of a 1 mL starter culture in 100 mL of Turbo-Broth containing 0.2 % lactose, 0.05% glucose and 0.6% glycerol at 20°C for 24 hrs. Cells were lysed in 50 mM Tris HCl pH 6.8, 300 mM NaCl, 0.1 % (v/v) NP-40, 2 mM DTT and 1x protease inhibitor cocktail (EDTA-free, Roche) and sonicated as described before. Cell lysate was cleared by centrifugation at 15000xg, 4°C for 30 min and equilibrated with amylose resin beads (New England Biolabs, Inc.) by inversion for 3 hrs at 4°C. Bound beads were washed one time in lysis buffer and four times with wash buffer (50 mM Tris-HCl pH 6.8, 400 mM NaCl, 2 mM DTT, 1x protease inhibitor cocktail). Bound MBP-E6 proteins were eluted using a final concentration of 20 mM maltose in 5 bed volumes of wash buffer. All steps were performed at 4°C. Protein concentration was measured by BCA (BioRad). Thermostability of MBP-E6 proteins was analyzed at a final concentration of 1 µM in reaction buffer (50 mM TrisHCl pH 6.8, 400 mM NaCl, 2 mM DTT). MBP-E6 proteins were equilibrated with CAF-8 (5 µM-150 µM), CAF-24 (5 µM-150 µM), CAF-26 (5 µM-150 µM) or DMSO for 30 min in reaction buffer. Sypro Orange, a hydrophobic fluorescent dye, was added at the end of the incubation period at a final concentration of 5X. The final DMSO concentration (1.8% v/v) was kept constant across the concentration range. Fluorescence was measured using the FRET channel of CFX96 Real-Time PCR thermal cycler (BioRad) over a temperature range of 25°C to 95°C. Temperature increments were set to 0.5°C for 30 sec followed by plate reading. Melt curves were determined in triplicate and repeated four times. Melt curves represent the relative fluorescence of the 1st derivative of four experiments. Melting temperature (Tm) was calculated by CFX manager software. The average melting temperature of the triplicate was used to calculate the ∆Tm for each experiment. ∆Tm values are expressed as the change vs. DMSO.

For series [2], the system named is HPV-16 E6 mediated p53 degradation. The series is described as follows: in vitro HPV-16 E6 mediated p53 degradation assay. In kind it is biochemical. As for the experimental part: In vitro expressed p53 was incubated in rabbit reticulocyte lysate in the presence or absence of in vitro expressed HPV16 E6. p53 levels were reduced in reaction containing E6 proteins (Figure 8 ).
Control reactions (no DNA, p53 alone) were incubated with 1 µL wheat germ extract and 2% DMSO in reaction buffer. In vitro translated p53 and rabbit reticulocyte lysate (RRL, Promega) were added to all reactions except the no DNA control reaction to which wheat germ extract was added instead of p53. Reactions were incubated for 3 hrs at 30°C and stopped by addition of 6X reducing SDS sample buffer and heating at 95°C for 5 min. Each reaction was loaded onto a 10% SDS-PAGE gel and transferred onto PVDF (0.45 µm). p53 and 16E6 were visualized using monoclonal p53 (Pab1801, 1:1000), monoclonal 16E6 (813, Arbor Vita Corporation, 1:4000) antibody and anti-mouse HRP-labeled secondary antibody (1:2000, Sigma-Aldrich).

Series [3] addresses T3, interaction between GST-E6 and three PDZ domains of hDlg fused to BAP (hDlg-BAP) (Human papillomavirus type 16, UniProt P03126).
T3 construct: made in house; host or cells: E. coli BL21
The experiment in a line: E6/hDlg-BAP specificity filter binding assay. On the set-up: species or system HPV-16. As for the experimental part:
(§2) This interaction between E6 and hDlg occurs at the C-terminus of E6 and is independent of the interaction between E6 and the charged leucine helix in E6AP [21, 22].
as §1, with “Plates were cleared and dried with on the vacuum manifold. Assay – Immunostar assay reagent was prepared and equilibrated to RT prior to addition.” left out

The test system of series [4] is interaction between anti-FLAG antibody and the FLAG epitope in the E6AP-BAP fusion. The series is described as follows: FLAG/BAP specificity filter binding assay. As for the experimental part:
The collection of 72 available structural-lead compounds was tested in the filter-plate based in vitro E6-E6AP binding assay. Compounds were tested twice at concentrations of 10, 50, and 100 µM. […] Compounds that disrupted the Flag-BAP interaction with the same potency as the HPV-16 E6 and E6AP interaction were classified as non-specific and eliminated from further analysis.
Figure 3 Activity of flavonoids in the in vitro binding assay. Compounds were tested in vitro for the ability to disrupt the E6-E6AP interaction. […] Percent inhibition was determined by the amount of BAP activity remaining in the well after washing and normalized to DMSO. Data was plotted by linear regression for single site binding using Prism (n=3, S.E.M.).
as §2

The nature of series [5]: solubility in aqueous SPR buffers. The class given is physicochemical. As to conditions: simple aqueous solution.
Setting [6] is: in silico leads retested in duplicate at 5 concentrations 5 to 250 µM.

The structures appear in SMILES notation. Entries after “also recorded” stand apart in the source; their conditions may differ. Read-outs that look alike come from different tables or passages of the source.

T1 sequence (P03126 whole entry): as above
T3 sequence (P03126 whole entry, the tested form may be a part): as the sequence (P03126 whole entry) above

A word on the IC50: it is the concentration at which inhibition is half-maximal. Higher therefore signals weaker potency. As for `O=c1cc(-c2cccc(C(F)(F)F)c2)oc2ccc(-c3nnn[nH]3)cc12` [CAF25], in series [1], the concentration for half-maximal inhibition (IC50) came to 1.1 µM and the Emax came out at 95%.
For the molecule `O=c1cc(-c2ccccc2)oc2ccc(-c3cccc(-c4nnn[nH]4)c3)cc12` [CAF27], in series [1], the 50% inhibitory concentration (IC50) was 6.9 µM and the Emax came out at 96%.
On to `O=C(O)c1cccc(-c2ccc3oc(-c4cccc(O)c4)cc(=O)c3c2)c1` [CAF28], for which, in series [1], the Emax is 75%.
As for `COc1ccc(-c2ccc3oc(-c4ccccc4)cc(=O)c3c2)c(OC)c1C(=O)O` [CAF29], in series [1], the 50% inhibitory concentration (IC50) stood at 12.5 µM and the Emax is 75%.
As to `O=C(O)c1cccc(-c2ccc3c(=O)cc(-c4ccccc4)oc3c2)c1` [CAF30], in series [1], the concentration for half-maximal inhibition (IC50) is 47.3 µM and the Emax is 84%.
The corresponding values for `O=C(O)c1cc(-c2ccc3c(=O)cc(-c4ccccc4)oc3c2)ccc1Cl` [CAF31] are 62.2 µM and 86%.
For `O=C(O)c1cc(-c2ccc3c(=O)cc(-c4ccccc4)oc3c2)ccc1F` [CAF32], in that order: 48 µM and 75%.
As for `COc1cc(OC)c2c(=O)cc(-c3ccc(OC)c(OC)c3)oc2c1` [CAF-8], the “effect on Tm of MBP-E6” value on MBP-E6 is “unable to significantly alter MBP-E6 melting temperature; also recorded: no measurable effect”. Also, the “effect on E6 mediated p53 degradation” value in series [2] (10 µM compound pre-incubated with E6) and in series [2] (100 µM compound pre-incubated with E6) was “did not alter E6 mediated p53 degradation” in each case. Besides, in series [1], the “activity and potency in E6/E6AP binding assay (in words)” value (from here on “activity and potency”) is listed as “no activity”.
`COc1cc(O)cc2oc(-c3ccc(O)c(O)c3)cc(=O)c12` [CAF-10]: in series [1], the “activity and potency” value is “same potency and activity as luteolin”.
With `O=c1cc(-c2ccc(O)c(O)c2)oc2cccc(O)c12` [CAF-13], the “increase of IC50 relative to luteolin” value in series [1] was 15-30 fold.
Turning to `O=c1cc(-c2ccc(O)cc2)oc2cc(O)cc(O)c12` [CAF-14], the “increase of IC50 relative to luteolin” value in series [1] is reported as 15-30 fold.
With `O=c1cc(-c2ccccc2)oc2ccc(-c3nnn[nH]3)cc12` [CAF-26], the “effect on Tm of MBP-E6” value on MBP-E6 was “about 1 °C”. For the same molecule, the “shift of MBP-E6 Tm” value at MBP-E6 (at 25, 50 and 150 µM) is roughly 1 °C. Moreover, the “specificity against hDlg control binding reaction” value in series [3] is “increased specificity against the FLAG and hDlg control binding reactions”. The “non-specific inhibition / specificity in FLAG-E6AP control assay” value (“non-specific inhibition / specificity” for short) in series [4] is “increased specificity against the FLAG and hDlg control binding reactions”. The “aqueous solubility (in words)” value in series [5] is reported as “limited aqueous solubility”. For the same molecule, in series [1], half-maximal inhibition (IC50) required 5.1 µM and the Emax stood at 97%. Further, the IC50 result in series [1] (full 7-point dose response, 0.5 µM to 333 µM, quadruplicate) is listed as “low micromolar IC50 values”.
As for `COc1ccc(CC2c3c(cc(OC)c(O)c3OC)CCN2C)cc1OC` (stereo not shown) [Compound 117], in series [4], the “non-specific inhibition / specificity” value is recorded as “inhibited binding in the FLAG-E6AP assay”. Further, in series [1] (setting [6]), the IC50 result was “low micromolar IC50 values”.
For the molecule `COc1ccc(NC2Oc3cc(O)ccc3C=C2C(=O)Nc2cccc(C)n2)cc1OC` (stereo not shown) [Compound 160], the “non-specific inhibition / specificity” value in series [4] is “inhibited binding in the FLAG-E6AP assay”. Besides, the half-maximal inhibitory concentration (IC50) result in series [1] (setting [6]) is on record as “low micromolar IC50 values”.
As for `CC(=O)Oc1cc(OC(C)=O)c2c(=O)c(OC(C)=O)c(-c3ccc(OC(C)=O)c(OC(C)=O)c3)oc2c1` [Compound 168], the “non-specific inhibition / specificity” value in series [4] is listed as “some non-specific inhibitory activity”. For the same molecule, the IC50 was 44 µM in series [1] and “low micromolar IC50 values” in series [1] (setting [6]).
Turning to `CC(=O)Oc1cc(OC(C)=O)c2c(=O)cc(-c3ccc(OC(C)=O)c(OC(C)=O)c3)oc2c1` [Compound 170], the “non-specific inhibition / specificity” value in series [4] is recorded as “more selective inhibitor of the E6-E6AP interaction”. Besides, in series [1], the IC50 came to 44 µM; the “activity and potency” value is “much lower activity and potency than observed with the initial hit”. Also, the IC50 result in series [1] (setting [6]) is given as “low micromolar IC50 values”.
A word on the inhibition: it is the percentage by which the read-out fell short of the control. Regarding `CC[C@H](C)[C@H](N)C(=O)N1CCC[C@H]1C(=O)N[C@@H](CCC(=O)O)C(=O)N[C@@H](CO)C(=O)N[C@@H](CO)C(=O)N[C@@H](CCC(=O)O)C(=O)N[C@@H](CC(C)C)C(=O)N[C@H](C(=O)N[C@@H](CC(C)C)C(=O)N[C@@H](CCC(N)=O)C(=O)N[C@@H](CCC(=O)O)C(=O)N[C@@H](CC(C)C)C(=O)N[C@@H](CC(C)C)C(=O)NCC(=O)N[C@@H](CCC(=O)O)C(=O)N[C@@H](CCC(=O)O)C(=O)N[C@@H](CCCNC(=N)N)C(=O)N[C@@H](CCCNC(=N)N)C(=O)O)[C@@H](C)O` [E6AP 18-mer, reference compound], the inhibition at 100 µM in series [1] (read-out: inhibition of binding) is 95%.
